Test results from patent publication US4550186A, “Binuclear copper (II) carboxylates formed from amine-carboxyboranes” (Duke University, priority 1983, dated 1985).

Experiments:
[1] = tested on: Phosphatidate Phosphohydrolase; experiment: In vitro liver enzyme study: phosphatidate phosphohydrolase; type: biochemical, mouse; settings: in vitro CF1 liver, 30 min
Protocol: In vitro enzymatic studies were determined using 10% homogenates of CF1 male mouse liver with 50-200 μM of test drugs. In vivo enzymatic studies were determined using 10% homogenates of liver from CF1 male mice obtained after administering the agents for 16 days at a dose ranging from 2.5-20 mg/kg/day intraperitoneally. The liver homogenates for both in vitro and in vivo studies were prepared in 0.25M sucrose and 0.001M (ethylenedinitrilo)tetraacetic acid. Acetyl coenzyme A synthetase and adenosine triphosphate dependent citrate lyase activities were determined spectrophotometrically at 540 nm as the hydroxylamate of acetyl coenzyme A formed after 30 min at 37° C. Mitochondrial citrate exchange was determined by the procedure of Robinson et al [Eur. J. Biochem., 216, 63 (1970)] using ^14 C-sodium bicarbonate (41 mCi/mmol) incorporated into mitochondrial ^14 C-citrate after isolating rat mitochondria (9000 g×10 min) from the homogenates. The exchanges of the ^14 C-citrate were determined after incubating the mitochondrial fraction which was loaded with labeled citrate and test drugs for 10 min. Then the radioactivity was measured in the mitochondrial and supernantant fractions in scintillation fluid and expressed as a percentage. Cholesterol side chain oxidation was determined by the method of Kritchevsky and Tepper [Artherosclerosis, 18, 93 (1973)] using (26-^14 C) cholesterol (50 mCi/mmol) and mitochondria isolated from rat liver homogenates. […] Fatty acid synthetase activity was determined by the method of Brady et al [J. Biol. Chem., 235, 3093 (1960)] using [2-^14 C] malonyl-coenzyme A (37.5 mCi/mmol) which was incorporated into newly synthesized fatty acids that were extracted with ether and counted. Acyl transferase activity was determined with glycerol-3phosphate [L-2-^3 H(N)] […] HCl and counted. Phosphatidate phosphohydrolase activity was measured as the inorganic phosphate released after 30 min from phosphatidic acid by the method of Mavis et al [J. Lipid Res., 19, 467 (1978)]. […]

[2] = molecular target: phosphoribosyl pyrophosphate amidotransferase (Mus musculus, UniProt Q8CIH9); experiment: In vivo phosphoribosyl pyrophosphate amidotransferase activity
Protocol: (§1) CF1 male mice (~30 g) were implanted with 2×10^6 Ehrlich ascites tumor cells, intraperitoneally on Day 0. Compound I was suspended by homogenation in 0.05% polysorbate.80-water and administered intraperitoneally at 10 and 20 mg/kg for 9 days to determine its effectiveness for inhibition of tumor growth. Mice were sacrificed on Day 10, and the ascites fluid was collected from the peritoneal cavity. The volume and ascrit (packed cell volume) were determined for each animal and the percent inhibition of tumor growth was calculated. For the metabolic studies, mice were treated on Days 8 and 9 with 10 mg/kg of Compound I, intraperitoneally. […]
(§2) Carbamyl phosphate synthetase activity was determined using the reaction medium of Kalman et al [Am. […] Citrulline formed from ornithine was measured at 490 nm by the method of Archibald [J. Biol. Chem., 156, 121 (1944)]. […] The ^14 CO2 generated in 15 min was trapped in 1M KOH and counted. Thymidylate synthetase activity was determined using a post-mitochondrial supernatant (9000 g×10 min) and 5 μCi of 5-^3 H-deoxyuridine monophosphate (14 Ci/mmol) according to the method of Kampf et al [ J. Med. Chem., 19, 903 (1976)]. ^14 C-Formate incorporation into purines was determined by the method of Spassova et al [Biochem. Pharmacol., 25, 923 (1976)] using 0.5 μCi of ^14 C-formic acid (52.0 mCi/mmol). […] The Rf value for xanthine monophosphate was scraped and counted. […]

[3] = molecular target: thymidylate synthetase (Mus musculus, UniProt P07607); experiment: In vivo thymidylate synthetase activity
Protocol: as §1, §2

[4] = 10 mg/kg/day I.P. on Days 8 and 9

Chain of phosphoribosyl pyrophosphate amidotransferase (Q8CIH9 12-517): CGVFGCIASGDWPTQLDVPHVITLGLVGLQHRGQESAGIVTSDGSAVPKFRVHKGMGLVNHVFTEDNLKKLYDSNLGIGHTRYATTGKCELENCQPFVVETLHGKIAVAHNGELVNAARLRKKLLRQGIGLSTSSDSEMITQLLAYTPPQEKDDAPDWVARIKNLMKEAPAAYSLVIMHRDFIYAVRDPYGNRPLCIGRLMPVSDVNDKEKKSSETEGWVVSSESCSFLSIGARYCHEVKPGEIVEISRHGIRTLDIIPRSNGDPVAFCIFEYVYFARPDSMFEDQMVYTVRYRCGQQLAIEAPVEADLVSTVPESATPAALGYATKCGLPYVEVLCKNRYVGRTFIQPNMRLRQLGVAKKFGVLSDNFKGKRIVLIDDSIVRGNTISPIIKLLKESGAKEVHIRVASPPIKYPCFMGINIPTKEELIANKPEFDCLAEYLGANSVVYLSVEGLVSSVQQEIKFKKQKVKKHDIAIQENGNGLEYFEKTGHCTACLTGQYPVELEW
Chain of thymidylate synthetase (P07607 whole entry): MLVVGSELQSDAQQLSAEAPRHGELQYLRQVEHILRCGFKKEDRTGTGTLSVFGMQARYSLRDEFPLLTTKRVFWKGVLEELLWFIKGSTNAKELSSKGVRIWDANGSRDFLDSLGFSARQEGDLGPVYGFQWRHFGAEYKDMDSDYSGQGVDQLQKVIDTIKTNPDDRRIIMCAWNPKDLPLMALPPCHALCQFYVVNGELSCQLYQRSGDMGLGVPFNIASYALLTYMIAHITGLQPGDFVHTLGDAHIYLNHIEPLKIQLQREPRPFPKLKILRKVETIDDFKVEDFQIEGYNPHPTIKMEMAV

For “{Cu[(CH3)3 N.BH2 CO2 ]2.(CH3)3 N.BH2 COOH} [Compound I]”, the “Phosphatidate Phosphohydrolase” value ([1]; 50 μM) was 77 ± 5 Percent Control, the “Phosphatidate Phosphohydrolase” value ([1]; 100 μM) was 63 ± 6 Percent Control and the “Phosphatidate Phosphohydrolase” value ([1]; 200 μM) was 35 ± 3 Percent Control. For the same substance, the “Phosphoribosyl pyrophosphate amidotransferase activity” value [2, 4] was 41 ± 3 % Control, the “Phosphoribosyl pyrophosphate amido transferase activity reduced” value ([2]; drug administration for 2 days) was 59% and the “Thymidylate synthetase activity suppressed” value [3] was 5%. The Thymidylate synthetase activity [3, 4] was 102 ± 9 % Control.
